One test deals with human Nav1.7 (Homo sapiens (Human), UniProt Q15858). In words: Human Nav1.7 inhibitory activity evaluation (automated patch clamp QPatch16X, HEK293A cells stably expressing human Nav1.7 and human Navβ1). It is filed as cell-based. The settings on record: human Nav1.7, automated patch clamp. Summed up:
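QPatch16X whole-cell recordings at room temperature from HEK293A cells stably expressing human Nav1.7 with Navβ1, CsF-based internal solution, pH 7.4 external, 0.1% DMSO. From −100 mV holding, protocol included a 15 s hold at a potential inactivating ~30-40% of channels; IC50 from inward current at the second −10 mV pulse.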
(In patch-clamp work, channel activity is measured electrically.)

In another test the target is human Nav1.5 (Homo sapiens (Human), UniProt Q14524). In words: Human Nav1.5 inhibitory activity evaluation (automated patch clamp QPatch16X, HEK293 cells stably expressing human Nav1.5). The following applies: human Nav1.5, automated patch clamp. It is filed as cell-based. Summed up: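 Whole-cell automated patch clamp at room temperature on HEK293 stably expressing human Nav1.5; holding −80 mV, 20 consecutive cardiomyocyte action-potential-like test pulses before and after compound (0.1% DMSO). Inhibition measured on inward current at 20th pulse; IC50 from concentration-response curve.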
human Nav1.5, sequence (Q14524 whole entry): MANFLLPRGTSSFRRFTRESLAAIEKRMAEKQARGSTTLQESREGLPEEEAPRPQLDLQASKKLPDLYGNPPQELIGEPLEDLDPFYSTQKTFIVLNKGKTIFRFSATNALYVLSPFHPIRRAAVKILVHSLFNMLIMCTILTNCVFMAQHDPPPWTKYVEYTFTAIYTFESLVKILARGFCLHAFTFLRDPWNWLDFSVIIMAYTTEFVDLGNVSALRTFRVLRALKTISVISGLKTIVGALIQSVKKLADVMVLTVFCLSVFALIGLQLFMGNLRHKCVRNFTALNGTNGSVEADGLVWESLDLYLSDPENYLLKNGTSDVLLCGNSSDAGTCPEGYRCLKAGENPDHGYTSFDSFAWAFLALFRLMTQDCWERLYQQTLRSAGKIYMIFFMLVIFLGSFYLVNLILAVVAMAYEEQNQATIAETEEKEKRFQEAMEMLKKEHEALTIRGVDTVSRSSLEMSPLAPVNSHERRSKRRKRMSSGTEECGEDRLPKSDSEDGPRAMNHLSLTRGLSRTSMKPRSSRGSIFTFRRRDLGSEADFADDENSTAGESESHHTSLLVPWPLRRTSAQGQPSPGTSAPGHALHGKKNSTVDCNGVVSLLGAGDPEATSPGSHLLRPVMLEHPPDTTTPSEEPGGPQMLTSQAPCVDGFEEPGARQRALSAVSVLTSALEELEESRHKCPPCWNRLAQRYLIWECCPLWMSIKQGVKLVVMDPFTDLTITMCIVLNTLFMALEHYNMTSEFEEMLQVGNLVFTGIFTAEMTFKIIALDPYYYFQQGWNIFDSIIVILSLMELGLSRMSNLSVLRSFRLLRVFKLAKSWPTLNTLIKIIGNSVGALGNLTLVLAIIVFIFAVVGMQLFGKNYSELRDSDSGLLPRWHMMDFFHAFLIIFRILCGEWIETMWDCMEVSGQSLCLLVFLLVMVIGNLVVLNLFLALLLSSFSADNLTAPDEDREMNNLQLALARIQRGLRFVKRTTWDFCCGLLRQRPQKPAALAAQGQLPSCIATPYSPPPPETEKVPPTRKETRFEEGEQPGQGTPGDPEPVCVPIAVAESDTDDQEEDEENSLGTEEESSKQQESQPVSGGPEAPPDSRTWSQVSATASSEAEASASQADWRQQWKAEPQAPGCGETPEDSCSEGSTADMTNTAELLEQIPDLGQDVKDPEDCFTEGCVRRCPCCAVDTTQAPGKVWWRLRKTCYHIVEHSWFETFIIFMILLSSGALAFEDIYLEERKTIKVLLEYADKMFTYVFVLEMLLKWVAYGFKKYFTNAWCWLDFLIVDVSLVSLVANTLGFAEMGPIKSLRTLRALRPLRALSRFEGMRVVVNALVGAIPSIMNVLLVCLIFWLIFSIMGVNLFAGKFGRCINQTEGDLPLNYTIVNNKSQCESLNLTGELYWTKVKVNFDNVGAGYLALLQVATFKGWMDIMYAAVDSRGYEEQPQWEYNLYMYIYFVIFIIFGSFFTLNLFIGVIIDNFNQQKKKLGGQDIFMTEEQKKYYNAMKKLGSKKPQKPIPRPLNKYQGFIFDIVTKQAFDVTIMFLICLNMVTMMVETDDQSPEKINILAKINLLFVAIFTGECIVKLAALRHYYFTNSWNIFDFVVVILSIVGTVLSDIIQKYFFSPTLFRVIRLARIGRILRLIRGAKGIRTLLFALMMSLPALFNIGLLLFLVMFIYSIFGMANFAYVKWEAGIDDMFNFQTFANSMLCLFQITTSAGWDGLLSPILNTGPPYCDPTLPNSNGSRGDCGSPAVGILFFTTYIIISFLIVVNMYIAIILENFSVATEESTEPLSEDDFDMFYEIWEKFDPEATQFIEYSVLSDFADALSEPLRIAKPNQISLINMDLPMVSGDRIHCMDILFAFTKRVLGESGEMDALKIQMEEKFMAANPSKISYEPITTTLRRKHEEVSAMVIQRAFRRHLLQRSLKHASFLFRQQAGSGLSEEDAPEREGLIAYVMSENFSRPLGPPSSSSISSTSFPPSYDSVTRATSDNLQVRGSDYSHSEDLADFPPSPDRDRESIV

SMILES strings stand for the structures.

What is called IC50 is the concentration needed to halve the response being measured. A low value points to greater potency.

human Nav1.7, sequence (Q15858 whole entry): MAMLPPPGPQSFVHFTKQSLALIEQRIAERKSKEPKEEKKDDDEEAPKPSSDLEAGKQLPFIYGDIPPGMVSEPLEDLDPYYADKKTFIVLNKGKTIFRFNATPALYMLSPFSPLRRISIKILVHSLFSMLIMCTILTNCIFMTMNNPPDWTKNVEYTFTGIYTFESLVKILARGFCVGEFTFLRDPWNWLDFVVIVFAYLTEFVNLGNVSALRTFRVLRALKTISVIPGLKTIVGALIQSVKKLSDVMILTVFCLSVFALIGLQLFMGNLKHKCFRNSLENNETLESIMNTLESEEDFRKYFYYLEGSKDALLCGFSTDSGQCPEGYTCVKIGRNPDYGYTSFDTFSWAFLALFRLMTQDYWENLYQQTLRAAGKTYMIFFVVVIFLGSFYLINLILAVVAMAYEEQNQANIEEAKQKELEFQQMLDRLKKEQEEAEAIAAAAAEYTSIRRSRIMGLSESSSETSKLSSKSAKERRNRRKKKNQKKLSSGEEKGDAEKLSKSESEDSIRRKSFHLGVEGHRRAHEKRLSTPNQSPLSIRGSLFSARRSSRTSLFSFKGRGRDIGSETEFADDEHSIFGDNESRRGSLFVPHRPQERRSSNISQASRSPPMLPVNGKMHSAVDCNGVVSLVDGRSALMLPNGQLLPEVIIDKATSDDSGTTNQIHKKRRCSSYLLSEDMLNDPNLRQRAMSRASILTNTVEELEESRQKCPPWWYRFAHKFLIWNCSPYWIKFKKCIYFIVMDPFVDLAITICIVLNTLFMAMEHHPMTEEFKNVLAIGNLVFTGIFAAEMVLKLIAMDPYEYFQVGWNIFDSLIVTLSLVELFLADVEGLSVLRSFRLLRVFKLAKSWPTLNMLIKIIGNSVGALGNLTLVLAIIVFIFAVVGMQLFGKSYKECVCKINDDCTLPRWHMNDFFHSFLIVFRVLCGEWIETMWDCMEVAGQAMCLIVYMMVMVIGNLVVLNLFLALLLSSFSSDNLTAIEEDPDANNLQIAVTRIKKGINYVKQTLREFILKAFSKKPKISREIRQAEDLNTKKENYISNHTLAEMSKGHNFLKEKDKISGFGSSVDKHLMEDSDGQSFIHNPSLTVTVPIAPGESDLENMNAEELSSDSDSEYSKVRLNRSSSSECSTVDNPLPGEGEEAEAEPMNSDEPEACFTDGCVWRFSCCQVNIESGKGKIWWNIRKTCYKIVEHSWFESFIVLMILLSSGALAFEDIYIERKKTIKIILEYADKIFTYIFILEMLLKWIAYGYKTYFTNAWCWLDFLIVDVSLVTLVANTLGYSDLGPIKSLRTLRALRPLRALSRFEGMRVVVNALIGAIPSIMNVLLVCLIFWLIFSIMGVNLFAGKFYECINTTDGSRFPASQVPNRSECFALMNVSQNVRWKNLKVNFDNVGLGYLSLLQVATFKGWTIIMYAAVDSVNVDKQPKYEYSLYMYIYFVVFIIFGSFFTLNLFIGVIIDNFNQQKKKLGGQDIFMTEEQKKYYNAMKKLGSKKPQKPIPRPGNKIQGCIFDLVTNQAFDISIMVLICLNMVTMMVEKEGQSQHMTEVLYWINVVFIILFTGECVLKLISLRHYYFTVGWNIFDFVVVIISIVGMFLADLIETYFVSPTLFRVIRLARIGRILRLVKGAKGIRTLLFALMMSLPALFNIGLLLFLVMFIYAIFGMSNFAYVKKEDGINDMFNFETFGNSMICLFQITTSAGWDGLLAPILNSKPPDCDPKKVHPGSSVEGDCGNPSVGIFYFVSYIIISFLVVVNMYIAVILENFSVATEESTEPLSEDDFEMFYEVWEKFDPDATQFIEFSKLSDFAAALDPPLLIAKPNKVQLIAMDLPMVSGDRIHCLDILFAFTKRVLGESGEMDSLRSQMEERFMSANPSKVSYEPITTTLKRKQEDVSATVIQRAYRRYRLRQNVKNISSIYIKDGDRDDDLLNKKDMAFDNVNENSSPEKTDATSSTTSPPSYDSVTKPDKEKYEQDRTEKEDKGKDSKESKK
human Nav1.7, sequence (Q07699 19-218 partner): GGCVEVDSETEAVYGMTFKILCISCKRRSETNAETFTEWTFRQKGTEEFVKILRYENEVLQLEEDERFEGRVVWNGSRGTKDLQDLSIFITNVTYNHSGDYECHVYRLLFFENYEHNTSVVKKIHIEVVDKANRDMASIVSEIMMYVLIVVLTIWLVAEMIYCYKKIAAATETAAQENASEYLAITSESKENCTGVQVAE

Take `N#Cc1ccc2c(c1)C[C@@H](NC(=O)c1cc3n(n1)CC(CSCC(F)(F)F)O3)CO2` (single isomer, unassigned) [200 (isomer B)]: the IC50 against human Nav1.7 is under 1000 nM; against human Nav1.5, at least 3000 nM.

As to `N#Cc1ccc2c(c1)C[C@@H](NC(=O)c1cc3n(n1)CC(CCOCC1CC1)O3)CO2` (single isomer, unassigned) [202 (isomer A)], the IC50 was under 1000 nM on human Nav1.7 and at least 3000 nM on human Nav1.5.

As to `N#Cc1ccc2c(c1)C[C@@H](NC(=O)c1cc3n(n1)CC(CCOCC1CC1)O3)CO2` (single isomer, unassigned) [202 (isomer B)], the IC50 on human Nav1.7 and on human Nav1.5 was under 1000 nM throughout.

In the case of `COc1ncc(-c2ccc3c(c2)C[C@@H](NC(=O)c2cc4n(n2)CC(CCOCC2CC2)O4)CO3)cn1` (single isomer, unassigned) [204 (isomer B)], the IC50 is under 1000 nM at human Nav1.7 and 1000 to 3000 nM on human Nav1.5.

Take `O=C(N[C@H]1COc2ccc(-c3ccccn3)cc2C1)c1cc2n(n1)CC(CCOCC(F)(F)F)O2` (single isomer, unassigned) [207 (isomer B)]: the values for the IC50 on human Nav1.7 and against human Nav1.5 were under 1000 nM and 1000 to 3000 nM, respectively.

With `N#Cc1ccc2c(c1)C[C@@H](NC(=O)c1cc3n(n1)CC(CCOC(F)(F)F)O3)CO2` (single isomer, unassigned) [209 (isomer B)], the IC50 at human Nav1.7 and against human Nav1.5 was under 1000 nM each time.

`Cn1ccc(-c2ccc3c(c2)C[C@@H](NC(=O)c2cc4n(n2)CC(CCOC(F)(F)F)O4)CO3)n1` (single isomer, unassigned) [213 (isomer A)]: the IC50 is under 1000 nM on human Nav1.7 and at least 3000 nM against human Nav1.5.

For `O=C(N[C@H]1COc2ccc(COCC(F)(F)F)cc2C1)c1cc2n(n1)CC(CCOC(F)F)O2` (single isomer, unassigned) [215 (isomer A)], the IC50 was under 1000 nM on human Nav1.7 and 1000 to 3000 nM against human Nav1.5.

Turning to `O=C(N[C@H]1COc2ccc(CCOC(F)F)cc2C1)c1cc2n(n1)CC(CCOC(F)F)O2` (single isomer, unassigned) [217 (isomer A)], the IC50 on human Nav1.7 was under 1000 nM; against human Nav1.5, 1000 to 3000 nM.

Regarding `O=C(N[C@H]1COc2ccc(CCOC(F)F)cc2C1)c1cc2n(n1)CC(CCOC(F)F)O2` (single isomer, unassigned) [217 (isomer B)], the IC50 against human Nav1.7 and at human Nav1.5 was under 1000 nM in each case.

In the case of `O=C(N[C@H]1COc2ccc(CC(F)F)cc2C1)c1cc2n(n1)CC(CCOC(F)F)O2` (single isomer, unassigned) [219 (isomer A)], the IC50 is under 10000 nM against human Nav1.7 and at least 3000 nM at human Nav1.5.

In the case of `O=C(N[C@H]1COc2ccc(CC(F)F)cc2C1)c1cc2n(n1)CC(CCOC(F)F)O2` (single isomer, unassigned) [219 (isomer B)], the IC50 on human Nav1.7 is under 1000 nM; at human Nav1.5 it was 1000 to 3000 nM.

In the case of `Cn1cc(-c2ccc3c(c2)C[C@@H](NC(=O)c2cc4n(n2)CC(CCOC(F)F)O4)CO3)cn1` (single isomer, unassigned) [221 (isomer A)], the IC50 against human Nav1.7 is under 10000 nM; at human Nav1.5 it was at least 3000 nM.

Take `Cn1cc(-c2ccc3c(c2)C[C@@H](NC(=O)c2cc4n(n2)CC(CCOC(F)F)O4)CO3)cn1` (single isomer, unassigned) [221 (isomer B)]: the IC50 at human Nav1.7 is under 1000 nM; on human Nav1.5 it was 1000 to 3000 nM.

With `O=C(N[C@H]1COc2ccc(-c3cnccn3)cc2C1)c1cc2n(n1)CC(CCOC(F)F)O2` (single isomer, unassigned) [223 (isomer B)], the IC50 at human Nav1.7 was under 1000 nM; on human Nav1.5 it was 1000 to 3000 nM.

As to `O=C(N[C@H]1COc2ccc(COCC(F)(F)F)cc2C1)c1cc2n(n1)CC(CCOCC(F)F)O2` (single isomer, unassigned) [224 (isomer A)], the results for the IC50 against human Nav1.7 and against human Nav1.5 were under 1000 nM and at least 3000 nM, respectively.

With `O=C(N[C@H]1COc2ccc(COCC(F)(F)F)cc2C1)c1cc2n(n1)CC(CCOCC(F)F)O2` (single isomer, unassigned) [224 (isomer B)], the IC50 at human Nav1.7 is under 1000 nM; at human Nav1.5, 1000 to 3000 nM.

Turning to `O=C(N[C@H]1COc2ccc(Cl)cc2C1)c1cc2n(n1)CC(CCNCC(F)(F)F)O2` (single isomer, unassigned) [226 (isomer A)], the values for the IC50 at human Nav1.7 and against human Nav1.5 were under 1000 nM and at least 3000 nM, respectively.

Take `O=C(N[C@H]1COc2ccc(Cl)cc2C1)c1cc2n(n1)CC(CCNCC(F)(F)F)O2` (single isomer, unassigned) [226 (isomer B)]: the IC50 is under 1000 nM against human Nav1.7 and 1000 to 3000 nM on human Nav1.5.

On to `Cc1ccc2c(c1)C[C@@H](NC(=O)c1cc3n(n1)CC(CCNCC(F)(F)F)O3)CO2` (single isomer, unassigned) [228 (isomer A)], for which the IC50 on human Nav1.7 was under 1000 nM; against human Nav1.5 it was at least 3000 nM.

Regarding `O=C(N[C@H]1COc2ccc(C(F)(F)F)cc2C1)c1cc2n(n1)CC(CCNCC(F)(F)F)O2` (single isomer, unassigned) [230 (isomer A)], the half-maximal inhibitory concentration (IC50) on human Nav1.7 is under 1000 nM; at human Nav1.5, at least 3000 nM.

As to `O=C(N[C@H]1COc2ccc(COCC(F)(F)F)cc2C1)c1cc2n(n1)CC(CCNCC(F)(F)F)O2` (single isomer, unassigned) [232 (isomer A)], the results for the IC50 at human Nav1.7 and on human Nav1.5 were under 1000 nM and 1000 to 3000 nM, respectively.

Consider `O=C(N[C@H]1COc2ccc(COCC(F)(F)F)cc2C1)c1cc2n(n1)CC(CCNCC(F)(F)F)O2` (single isomer, unassigned) [232 (isomer B)], for which the IC50 at human Nav1.7 was under 1000 nM; at human Nav1.5, at least 3000 nM.

`O=C(N[C@H]1COc2ccc(Cl)cc2C1)c1cc2n(n1)CC(CCN1CC(F)(F)C1)O2` (single isomer, unassigned) [234 (isomer A)]: the IC50 on human Nav1.7 was under 1000 nM; against human Nav1.5 it was at least 3000 nM.

For `O=C(N[C@H]1COc2ccc(Cl)cc2C1)c1cc2n(n1)CC(CCN1CC(F)(F)C1)O2` (single isomer, unassigned) [234 (isomer B)], the IC50 against human Nav1.7 and at human Nav1.5 was under 1000 nM throughout.

`O=C(N[C@H]1COc2ccc(C(F)(F)F)cc2C1)c1cc2n(n1)CC(CCN1CC(F)(F)C1)O2` (single isomer, unassigned) [236 (isomer B)]: the IC50 was under 1000 nM against human Nav1.7 and 1000 to 3000 nM on human Nav1.5.

For `N#Cc1ccc2c(c1)C[C@@H](NC(=O)c1cc3n(n1)CC(CCSCC(F)(F)F)O3)CO2` (single isomer, unassigned) [244 (isomer B)], the IC50 against human Nav1.7 and against human Nav1.5 was under 1000 nM in each case.

Consider `N#Cc1ccc2c(c1)C[C@@H](NC(=O)c1cc3n(n1)CC(CCCOCC(F)(F)F)O3)CO2` (single isomer, unassigned) [246 (isomer A)], for which the IC50 against human Nav1.7 is under 1000 nM; on human Nav1.5, 1000 to 3000 nM.

For the compound `N#Cc1ccc2c(c1)C[C@@H](NC(=O)c1cc3n(n1)CC(CCCOCC(F)(F)F)O3)CO2` (single isomer, unassigned) [246 (isomer B)], the IC50 against human Nav1.7 is under 1000 nM; against human Nav1.5, at least 3000 nM.

With `N#Cc1ccc2c(c1)C[C@@H](NC(=O)c1cc3n(n1)CC(CCCOC(F)(F)F)O3)CO2` (single isomer, unassigned) [247 (isomer A)], the IC50 at human Nav1.7 was under 1000 nM; on human Nav1.5, 1000 to 3000 nM.

For `N#Cc1ccc2c(c1)C[C@@H](NC(=O)c1cc3n(n1)CC(CCCOC(F)F)O3)CO2` (single isomer, unassigned) [248 (isomer A)], the results for the IC50 against human Nav1.7 and at human Nav1.5 were under 1000 nM and 1000 to 3000 nM, respectively.

As for `O=C(N[C@H]1COc2ccc(Cl)cc2C1)c1cc2n(n1)CCC(OCC(F)(F)F)CO2` (single isomer, unassigned) [256 (isomer A)], the IC50 at human Nav1.7 was under 1000 nM; against human Nav1.5, at least 3000 nM.

`O=C(N[C@H]1COc2ccc(Cl)cc2C1)c1cc2n(n1)CCC(OCC(F)(F)F)CO2` (single isomer, unassigned) [256 (isomer B)]: the IC50 against human Nav1.7 was under 1000 nM; on human Nav1.5, 1000 to 3000 nM.

In the case of `O=C(N[C@H]1COc2ccc(C(F)(F)F)cc2C1)c1cc2n(n1)CCC(OCC(F)(F)F)CO2` (single isomer, unassigned) [257 (isomer A)], the IC50 at human Nav1.7 was under 1000 nM; at human Nav1.5, at least 3000 nM.

On to `CC(C)(F)C1CCn2nc(C(=O)N[C@H]3COc4ccc(C#N)cc4C3)cc2O1` (single isomer, unassigned) [547 (isomer A)], for which the IC50 is under 10000 nM at human Nav1.7 and at least 3000 nM on human Nav1.5.

Take `N#Cc1ccc2c(c1)C[C@@H](NC(=O)c1cc3n(n1)CCC(COCC1(F)CC1)O3)CO2` (single isomer, unassigned) [552 (isomer A)]: the values for the IC50 against human Nav1.7 and against human Nav1.5 were under 10000 nM and at least 3000 nM, respectively.

Regarding `N#CC1(COCC2CCn3nc(C(=O)N[C@H]4COc5ccc(C(F)(F)F)cc5C4)cc3O2)CC1` (single isomer, unassigned) [554 (isomer A)], the IC50 at human Nav1.7 is under 1000 nM; at human Nav1.5, at least 3000 nM.

`N#CC1(COCC2CCn3nc(C(=O)N[C@H]4COc5ccc(Cl)cc5C4)cc3O2)CC1` (single isomer, unassigned) [563 (isomer A)]: the values for the IC50 against human Nav1.7 and against human Nav1.5 were under 10000 nM and 1000 to 3000 nM, respectively.

For `N#CC1(COCC2CCn3nc(C(=O)N[C@H]4COc5ccc(Cl)cc5C4)cc3O2)CC1` (single isomer, unassigned) [563 (isomer B)], the IC50 at human Nav1.7 is under 1000 nM; against human Nav1.5 it was at least 3000 nM.

Take `COC1c2cc(C(F)(F)F)ccc2OC[C@@H]1NC(=O)c1cc2n(n1)CCC(COCC(F)(F)F)O2` (single isomer, unassigned) [598 (isomer B)]: the IC50 against human Nav1.7 was under 1000 nM; against human Nav1.5 it was 1000 to 3000 nM.

With `O=C(N[C@H]1COc2ccc(C(F)(F)F)cc2C1O)c1cc2n(n1)CC(CCOCC(F)(F)F)O2` (single isomer, unassigned) [600 (isomer B)], the IC50 on human Nav1.7 was under 1000 nM; against human Nav1.5, 1000 to 3000 nM.

The record behind these values is patent publication US12421225B2, “Heteroaromatic amide derivative and medicament containing the same” (KAKEN PHARMACEUTICAL CO., LTD., priority 2018, dated 2025).
